# The source made the active and inactive calls.
# Assays:
# Caspase-3 = biological target: T1, Caspase-3 (Homo sapiens, UniProt P42574); type: functional;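 further: Dose-response selectivity test against caspase-3 for candidate inhibitors of sentrin-specific proteases (SENPs)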
# T1 sequence (P42574 whole entry): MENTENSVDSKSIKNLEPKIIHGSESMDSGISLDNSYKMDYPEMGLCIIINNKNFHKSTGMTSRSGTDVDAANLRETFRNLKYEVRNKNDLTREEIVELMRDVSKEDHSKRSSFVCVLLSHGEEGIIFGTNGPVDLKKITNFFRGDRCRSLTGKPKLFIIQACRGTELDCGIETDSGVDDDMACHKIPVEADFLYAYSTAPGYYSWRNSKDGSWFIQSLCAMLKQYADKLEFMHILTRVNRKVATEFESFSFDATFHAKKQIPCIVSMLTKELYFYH
# [1] = biological target: T2, Sentrin-specific protease 7 (Homo sapiens, UniProt Q9BQF6); type: functional;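 further: Luminescence-based dose-response confirmation of ultra-high-throughput screening hits, measuring inhibition of SENP7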
# T2 sequence (Q9BQF6 whole entry): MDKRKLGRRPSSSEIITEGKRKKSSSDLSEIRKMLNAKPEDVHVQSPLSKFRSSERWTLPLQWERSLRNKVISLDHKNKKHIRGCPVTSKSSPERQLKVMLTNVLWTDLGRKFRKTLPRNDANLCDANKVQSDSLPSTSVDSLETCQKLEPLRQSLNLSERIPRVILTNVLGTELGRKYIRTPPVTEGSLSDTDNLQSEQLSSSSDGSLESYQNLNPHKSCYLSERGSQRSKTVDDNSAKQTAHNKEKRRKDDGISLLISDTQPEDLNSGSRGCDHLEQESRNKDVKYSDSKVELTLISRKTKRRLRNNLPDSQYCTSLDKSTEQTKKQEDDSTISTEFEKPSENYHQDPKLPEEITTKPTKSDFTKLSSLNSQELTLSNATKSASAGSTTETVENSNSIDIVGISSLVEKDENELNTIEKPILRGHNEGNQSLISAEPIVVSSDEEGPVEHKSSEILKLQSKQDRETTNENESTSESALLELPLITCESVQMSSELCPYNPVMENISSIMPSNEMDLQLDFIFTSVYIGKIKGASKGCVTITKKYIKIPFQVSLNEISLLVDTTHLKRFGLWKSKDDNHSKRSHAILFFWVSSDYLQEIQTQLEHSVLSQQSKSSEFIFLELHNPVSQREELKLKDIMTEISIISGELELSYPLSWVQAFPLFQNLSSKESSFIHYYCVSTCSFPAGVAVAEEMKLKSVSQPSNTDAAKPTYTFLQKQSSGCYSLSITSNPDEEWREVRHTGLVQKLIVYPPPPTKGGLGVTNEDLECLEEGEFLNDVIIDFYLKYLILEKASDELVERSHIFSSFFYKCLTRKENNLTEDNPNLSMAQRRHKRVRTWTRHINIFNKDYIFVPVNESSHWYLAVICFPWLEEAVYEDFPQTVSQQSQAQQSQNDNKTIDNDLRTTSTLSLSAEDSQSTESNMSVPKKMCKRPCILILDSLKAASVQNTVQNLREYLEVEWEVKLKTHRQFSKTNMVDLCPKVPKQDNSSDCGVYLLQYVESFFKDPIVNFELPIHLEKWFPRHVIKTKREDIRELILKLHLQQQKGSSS
# [2] = biological target: T3, Sentrin-specific protease 6 (Homo sapiens, UniProt Q9GZR1); type: functional;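 further: Luminescence-based dose-response confirmatory assay of SENP6 inhibition, following up an ultra-high-throughput screen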
# T3 sequence (Q9GZR1 whole entry): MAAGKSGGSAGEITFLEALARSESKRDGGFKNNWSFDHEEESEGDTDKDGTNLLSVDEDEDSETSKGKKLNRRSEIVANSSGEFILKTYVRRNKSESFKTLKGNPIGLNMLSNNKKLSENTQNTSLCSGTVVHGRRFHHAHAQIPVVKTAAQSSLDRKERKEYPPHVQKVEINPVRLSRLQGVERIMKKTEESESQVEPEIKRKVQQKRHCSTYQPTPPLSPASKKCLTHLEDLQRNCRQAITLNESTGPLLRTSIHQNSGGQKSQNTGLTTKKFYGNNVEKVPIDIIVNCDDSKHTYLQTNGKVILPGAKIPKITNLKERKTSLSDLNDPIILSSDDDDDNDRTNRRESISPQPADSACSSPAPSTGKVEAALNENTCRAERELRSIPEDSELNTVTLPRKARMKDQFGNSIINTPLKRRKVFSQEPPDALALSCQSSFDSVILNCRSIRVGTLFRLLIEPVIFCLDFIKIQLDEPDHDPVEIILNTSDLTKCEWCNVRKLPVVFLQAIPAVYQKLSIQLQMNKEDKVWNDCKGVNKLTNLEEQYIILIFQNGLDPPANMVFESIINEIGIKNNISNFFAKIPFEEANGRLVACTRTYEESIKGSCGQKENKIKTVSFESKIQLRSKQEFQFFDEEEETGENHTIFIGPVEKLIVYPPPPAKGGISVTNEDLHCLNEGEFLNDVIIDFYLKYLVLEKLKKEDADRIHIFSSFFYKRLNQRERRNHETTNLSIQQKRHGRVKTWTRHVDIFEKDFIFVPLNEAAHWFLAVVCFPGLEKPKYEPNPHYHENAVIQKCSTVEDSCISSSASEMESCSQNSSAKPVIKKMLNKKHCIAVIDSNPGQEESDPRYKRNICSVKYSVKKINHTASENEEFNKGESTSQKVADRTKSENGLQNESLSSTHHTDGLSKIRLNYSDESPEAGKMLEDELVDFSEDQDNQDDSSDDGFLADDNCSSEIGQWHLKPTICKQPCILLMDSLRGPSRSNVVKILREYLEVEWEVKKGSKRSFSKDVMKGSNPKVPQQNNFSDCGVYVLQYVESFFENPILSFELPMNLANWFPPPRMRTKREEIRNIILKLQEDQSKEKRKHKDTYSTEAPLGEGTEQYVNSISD
# [3] = biological target: T4, Sentrin-specific protease 8 (Homo sapiens, UniProt Q96LD8); type: functional;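 further: luminescence read-out of SENP8 inhibition, dose-response confirmation following an ultra-high-throughput screen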
# T4 sequence (Q96LD8 whole entry): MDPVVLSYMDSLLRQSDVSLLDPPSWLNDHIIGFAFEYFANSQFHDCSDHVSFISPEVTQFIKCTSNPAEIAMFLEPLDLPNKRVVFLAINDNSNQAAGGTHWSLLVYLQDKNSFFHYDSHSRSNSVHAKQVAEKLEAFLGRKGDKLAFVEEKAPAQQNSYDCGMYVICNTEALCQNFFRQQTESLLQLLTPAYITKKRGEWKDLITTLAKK
# [4] = biological target: Voltage-dependent T-type calcium channel subunit alpha-1H (Homo sapiens, UniProt O95180); type: functional;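 further: channel activity triggered by adding a high calcium stimulation buffer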
# Sequence of Voltage-dependent T-type calcium channel subunit alpha-1H (O95180 whole entry): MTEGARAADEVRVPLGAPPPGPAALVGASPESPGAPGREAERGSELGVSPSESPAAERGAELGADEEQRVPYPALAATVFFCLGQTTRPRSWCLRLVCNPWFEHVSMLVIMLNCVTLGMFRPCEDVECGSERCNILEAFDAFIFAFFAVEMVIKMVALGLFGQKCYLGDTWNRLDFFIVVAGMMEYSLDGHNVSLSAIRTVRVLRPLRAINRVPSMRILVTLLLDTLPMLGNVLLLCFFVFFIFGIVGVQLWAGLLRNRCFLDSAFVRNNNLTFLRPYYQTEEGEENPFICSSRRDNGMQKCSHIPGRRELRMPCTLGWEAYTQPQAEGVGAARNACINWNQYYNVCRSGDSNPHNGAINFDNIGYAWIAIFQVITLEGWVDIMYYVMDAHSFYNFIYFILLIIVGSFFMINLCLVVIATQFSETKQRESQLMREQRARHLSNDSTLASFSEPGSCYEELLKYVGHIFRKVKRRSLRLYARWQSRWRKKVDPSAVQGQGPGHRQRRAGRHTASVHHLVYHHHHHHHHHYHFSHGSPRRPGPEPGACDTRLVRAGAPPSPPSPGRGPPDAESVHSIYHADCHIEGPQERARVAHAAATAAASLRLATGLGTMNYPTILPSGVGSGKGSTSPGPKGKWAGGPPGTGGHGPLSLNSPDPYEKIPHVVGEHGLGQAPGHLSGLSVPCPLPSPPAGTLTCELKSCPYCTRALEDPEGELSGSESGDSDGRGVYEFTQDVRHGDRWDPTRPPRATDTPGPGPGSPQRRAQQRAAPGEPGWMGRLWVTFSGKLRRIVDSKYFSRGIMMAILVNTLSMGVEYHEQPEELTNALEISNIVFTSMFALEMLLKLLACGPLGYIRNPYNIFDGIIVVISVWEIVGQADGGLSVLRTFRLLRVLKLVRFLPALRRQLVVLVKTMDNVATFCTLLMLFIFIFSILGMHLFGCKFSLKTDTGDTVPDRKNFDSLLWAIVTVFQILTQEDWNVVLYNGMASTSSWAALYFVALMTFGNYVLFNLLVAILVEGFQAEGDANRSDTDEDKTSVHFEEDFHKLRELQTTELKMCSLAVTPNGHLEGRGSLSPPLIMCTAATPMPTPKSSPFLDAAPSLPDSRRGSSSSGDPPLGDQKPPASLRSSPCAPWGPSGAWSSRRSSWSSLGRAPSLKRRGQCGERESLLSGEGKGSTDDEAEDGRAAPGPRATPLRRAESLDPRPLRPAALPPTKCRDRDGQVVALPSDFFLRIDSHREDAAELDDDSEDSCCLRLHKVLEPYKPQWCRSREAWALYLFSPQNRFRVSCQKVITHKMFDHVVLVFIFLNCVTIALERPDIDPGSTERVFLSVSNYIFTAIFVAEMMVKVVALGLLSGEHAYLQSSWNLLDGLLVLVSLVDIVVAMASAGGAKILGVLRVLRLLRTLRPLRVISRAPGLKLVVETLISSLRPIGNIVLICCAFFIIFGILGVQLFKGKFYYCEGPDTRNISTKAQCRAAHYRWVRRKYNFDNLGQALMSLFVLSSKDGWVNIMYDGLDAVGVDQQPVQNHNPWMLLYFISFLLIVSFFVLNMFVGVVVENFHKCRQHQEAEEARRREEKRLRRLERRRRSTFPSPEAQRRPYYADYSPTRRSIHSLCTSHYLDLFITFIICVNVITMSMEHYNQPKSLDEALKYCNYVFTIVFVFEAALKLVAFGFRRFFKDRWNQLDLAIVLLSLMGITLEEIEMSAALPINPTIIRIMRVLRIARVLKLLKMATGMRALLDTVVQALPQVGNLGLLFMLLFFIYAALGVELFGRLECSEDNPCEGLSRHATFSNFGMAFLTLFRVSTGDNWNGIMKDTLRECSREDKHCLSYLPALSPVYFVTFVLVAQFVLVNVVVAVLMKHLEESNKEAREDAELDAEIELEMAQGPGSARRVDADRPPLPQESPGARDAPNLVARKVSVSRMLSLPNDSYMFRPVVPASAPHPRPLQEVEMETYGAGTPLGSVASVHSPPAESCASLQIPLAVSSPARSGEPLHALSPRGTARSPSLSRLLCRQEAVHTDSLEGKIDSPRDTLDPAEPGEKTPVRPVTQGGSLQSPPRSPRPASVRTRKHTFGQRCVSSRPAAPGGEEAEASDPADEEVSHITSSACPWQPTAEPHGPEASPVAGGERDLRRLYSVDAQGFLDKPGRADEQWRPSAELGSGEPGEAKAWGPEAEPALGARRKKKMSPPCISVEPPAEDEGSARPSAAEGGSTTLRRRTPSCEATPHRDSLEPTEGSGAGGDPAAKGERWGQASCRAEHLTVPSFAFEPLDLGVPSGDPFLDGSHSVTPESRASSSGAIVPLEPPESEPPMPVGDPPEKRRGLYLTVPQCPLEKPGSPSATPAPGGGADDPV
# [5] = THP-1 cell cytotoxicity, dose response, cytotoxicity control for non-replicating M. tuberculosis project (AID 489025); type: functional
# cells = type: functional
# INS1 = experiment: INS-1E survival protection against cytokine death – cell-based, luminescence, retest, dose response (AID 449756); type: functional; conditions: Rattus norvegicus;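 further: cell death triggered by IL-1 beta plus TNF-alpha plus IFN-gamma mixture; protective hits raise ATP signal compared with cytokine alone wells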
# Caspase-6 = biological target: T5, Caspase-6 (Homo sapiens, UniProt P55212); experiment: inhibition of CASP6 peptide cleavage – biochemical, VEID-R110 fluorescence, cherry-pick, dose response (AID 720632)
# T5 sequence (P55212 whole entry): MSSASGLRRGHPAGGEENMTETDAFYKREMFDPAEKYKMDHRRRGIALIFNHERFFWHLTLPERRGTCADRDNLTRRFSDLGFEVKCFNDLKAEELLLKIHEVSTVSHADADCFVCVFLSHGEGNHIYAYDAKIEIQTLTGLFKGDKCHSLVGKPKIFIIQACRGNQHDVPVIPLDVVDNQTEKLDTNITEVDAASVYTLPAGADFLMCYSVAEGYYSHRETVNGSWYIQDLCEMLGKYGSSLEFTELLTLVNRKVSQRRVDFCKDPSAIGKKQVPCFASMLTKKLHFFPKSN
# Large T antigen = Large T antigen (Simian virus 40, UniProt P03070); type: functional, Betapolyomavirus macacae;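 further: Confirmatory-stage PubChem screen for compounds that inhibit SV40 T antigen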
# Sequence of Large T antigen (P03070 whole entry): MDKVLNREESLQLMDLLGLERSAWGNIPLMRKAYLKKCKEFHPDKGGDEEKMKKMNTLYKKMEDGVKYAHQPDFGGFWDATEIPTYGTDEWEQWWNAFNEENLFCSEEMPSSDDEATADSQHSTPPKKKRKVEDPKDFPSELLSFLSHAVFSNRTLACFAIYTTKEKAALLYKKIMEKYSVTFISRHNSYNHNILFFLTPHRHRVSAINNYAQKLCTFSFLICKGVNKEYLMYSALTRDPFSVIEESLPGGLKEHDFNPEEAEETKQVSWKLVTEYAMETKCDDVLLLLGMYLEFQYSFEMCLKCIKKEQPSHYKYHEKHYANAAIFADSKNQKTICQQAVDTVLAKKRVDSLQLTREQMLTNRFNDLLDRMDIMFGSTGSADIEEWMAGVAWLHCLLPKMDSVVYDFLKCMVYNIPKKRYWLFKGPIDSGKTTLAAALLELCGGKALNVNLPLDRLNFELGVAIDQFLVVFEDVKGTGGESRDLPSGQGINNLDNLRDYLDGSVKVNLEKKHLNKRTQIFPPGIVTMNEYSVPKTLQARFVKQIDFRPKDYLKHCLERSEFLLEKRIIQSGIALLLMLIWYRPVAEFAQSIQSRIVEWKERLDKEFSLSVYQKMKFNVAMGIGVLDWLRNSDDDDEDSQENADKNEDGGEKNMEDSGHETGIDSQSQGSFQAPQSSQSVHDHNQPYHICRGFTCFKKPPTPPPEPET
# [6] = viability loss in HeLa cells – cytotoxicity control for MgcRacGAP inhibitor project, dose response (AID 624300); type: functional
# [7] = biological target: T6, Rac GTPase-activating protein 1 (Homo sapiens, UniProt Q9H0H5); experiment: blockers of MgcRacGAP-driven Rac1 GTP hydrolysis – biochemical, ADP Hunter fluorescence, primary and confirmatory, confirmation (AID 624330); type: functional
# T6 sequence (Q9H0H5 whole entry): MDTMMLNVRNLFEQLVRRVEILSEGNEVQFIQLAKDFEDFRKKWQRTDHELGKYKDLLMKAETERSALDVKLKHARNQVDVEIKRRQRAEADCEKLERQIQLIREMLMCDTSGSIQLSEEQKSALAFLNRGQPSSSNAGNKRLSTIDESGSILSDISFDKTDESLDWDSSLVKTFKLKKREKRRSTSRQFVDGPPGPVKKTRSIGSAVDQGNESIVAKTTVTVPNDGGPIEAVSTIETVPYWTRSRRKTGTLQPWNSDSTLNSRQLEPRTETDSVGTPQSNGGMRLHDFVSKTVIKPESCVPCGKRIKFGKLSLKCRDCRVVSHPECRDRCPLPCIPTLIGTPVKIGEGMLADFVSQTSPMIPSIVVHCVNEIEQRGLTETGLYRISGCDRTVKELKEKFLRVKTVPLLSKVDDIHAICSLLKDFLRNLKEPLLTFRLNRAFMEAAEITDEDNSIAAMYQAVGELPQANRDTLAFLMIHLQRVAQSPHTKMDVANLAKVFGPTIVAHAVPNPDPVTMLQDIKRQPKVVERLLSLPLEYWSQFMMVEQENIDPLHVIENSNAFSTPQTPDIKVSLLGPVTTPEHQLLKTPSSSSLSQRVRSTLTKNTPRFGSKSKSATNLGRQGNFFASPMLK
# [8] = system: Streptococcus sp. 'group A'; experiment: Streptococcus pyogenes SK(-)GAS viability under kanamycin – luminescence, BacTiterGlo, confirmation, counter-screen for streptokinase expression inhibitor project, dose response (AID 1900); type: functional, organism-based
# Streptokinase A = biological target: T7, Streptokinase A (Streptococcus pyogenes serotype M1, UniProt P10520); experiment: viability-normalized secreted streptokinase activity reduction – plasminogen activation absorbance, OD405, dose response (AID 1914); type: functional, Streptococcus pyogenes M1 GAS;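 further: secreted streptokinase activity via plasminogen activation per viability signal from cell pellet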
# T7 sequence (P10520 whole entry): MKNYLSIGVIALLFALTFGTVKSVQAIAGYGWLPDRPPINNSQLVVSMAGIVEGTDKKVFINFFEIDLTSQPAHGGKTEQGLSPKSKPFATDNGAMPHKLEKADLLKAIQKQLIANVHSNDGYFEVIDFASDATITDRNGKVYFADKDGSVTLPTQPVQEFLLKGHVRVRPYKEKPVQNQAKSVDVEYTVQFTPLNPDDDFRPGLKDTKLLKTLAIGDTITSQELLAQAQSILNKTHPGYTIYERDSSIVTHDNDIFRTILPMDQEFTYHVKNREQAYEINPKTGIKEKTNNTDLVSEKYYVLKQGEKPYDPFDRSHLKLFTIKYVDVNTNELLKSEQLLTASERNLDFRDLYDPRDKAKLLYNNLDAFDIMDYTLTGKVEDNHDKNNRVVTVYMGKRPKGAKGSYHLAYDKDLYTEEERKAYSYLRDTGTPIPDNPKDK
# Streptococcus = experiment: GAS UMAA2166 growth inhibition – luminescence, BacTiterGlo, counter-screen for streptokinase expression inhibitor project, dose response (AID 1915); type: functional, organism-based;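 further: potency for reduction of bacterial viability or growth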
# [9] = biological target: FAD-linked sulfhydryl oxidase ALR (Homo sapiens, UniProt P55789); experiment: ALR-catalysed DTT oxidation blockers – biochemical, H2O2 detection, luminescence, cherry-pick, dose response (AID 493248)
# Sequence of FAD-linked sulfhydryl oxidase ALR (P55789 whole entry): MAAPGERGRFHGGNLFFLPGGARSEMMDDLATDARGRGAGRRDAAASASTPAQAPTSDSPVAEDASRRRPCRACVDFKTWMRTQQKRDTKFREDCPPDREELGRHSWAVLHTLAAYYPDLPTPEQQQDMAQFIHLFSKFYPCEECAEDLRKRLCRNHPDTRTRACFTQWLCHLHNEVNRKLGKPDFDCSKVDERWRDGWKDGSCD
# Paired box protein Pax-8 = Paired box protein Pax-8 (Homo sapiens, UniProt Q06710); experiment: PAX8 transcriptional activity inhibition in RMG-I – RMG-I cells, luciferase, cherry-pick, dose response (AID 687027); type: functional, cell-based;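 further: luciferase reporter driven by Pax8 target thyroperoxidase promoter measured by SteadyGlo luminescence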
# Sequence of Paired box protein Pax-8 (Q06710 whole entry): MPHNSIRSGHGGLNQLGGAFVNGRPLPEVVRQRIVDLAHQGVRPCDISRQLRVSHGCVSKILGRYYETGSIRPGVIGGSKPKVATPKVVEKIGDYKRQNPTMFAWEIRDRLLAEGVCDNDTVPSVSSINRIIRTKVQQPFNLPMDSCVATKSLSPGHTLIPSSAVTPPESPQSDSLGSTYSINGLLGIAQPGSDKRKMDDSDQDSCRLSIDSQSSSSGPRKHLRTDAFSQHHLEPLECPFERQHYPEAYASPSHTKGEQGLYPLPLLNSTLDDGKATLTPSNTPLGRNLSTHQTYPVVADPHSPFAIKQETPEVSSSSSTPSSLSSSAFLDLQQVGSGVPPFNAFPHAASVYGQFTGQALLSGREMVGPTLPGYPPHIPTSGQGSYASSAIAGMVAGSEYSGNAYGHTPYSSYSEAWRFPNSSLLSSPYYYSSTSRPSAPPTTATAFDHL
# [10] = OVCAR-3 cell viability loss – plate reader, dry powder samples, PAX8 inhibitor project, dose response (AID 743044); type: functional, cell-based
# [11] = IGROV1 cell killing – plate reader, dry powder samples, PAX8 inhibitor project, dose response (AID 743043); type: functional, cell-based; conditions: IGROV-1
# [12] = OVCAR8 cell viability loss – plate reader, dry powder samples, PAX8 project, dose response (AID 743197); type: functional, cell-based; conditions: OVCAR-8
# Cytochrome P450 3A4 = Cytochrome P450 3A4 (Homo sapiens, UniProt P08684); conditions: Potency;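 further: confirmatory qHTS run detecting inhibitors and substrates of CYP3A4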
# Sequence of Cytochrome P450 3A4 (P08684 whole entry): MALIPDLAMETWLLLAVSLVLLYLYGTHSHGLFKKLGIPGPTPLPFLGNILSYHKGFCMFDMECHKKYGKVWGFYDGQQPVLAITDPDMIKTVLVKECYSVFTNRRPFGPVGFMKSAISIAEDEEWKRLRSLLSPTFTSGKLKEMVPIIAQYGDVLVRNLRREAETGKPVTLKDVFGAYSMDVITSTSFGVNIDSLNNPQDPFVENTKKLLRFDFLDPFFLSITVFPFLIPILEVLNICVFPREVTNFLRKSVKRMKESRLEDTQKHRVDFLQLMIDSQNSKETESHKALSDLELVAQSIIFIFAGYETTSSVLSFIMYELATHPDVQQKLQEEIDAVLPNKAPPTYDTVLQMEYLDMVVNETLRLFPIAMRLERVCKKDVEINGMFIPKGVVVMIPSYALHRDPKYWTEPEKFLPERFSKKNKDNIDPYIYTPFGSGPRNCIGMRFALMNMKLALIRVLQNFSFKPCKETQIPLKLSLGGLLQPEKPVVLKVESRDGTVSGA
structure (smiles),measurement,setting,value
c1ccc(Nc2ncnc3c2oc2ccccc23)cc1,IC50,Caspase-3,31.3 µM (active)
same,IC50,[1],11.9 µM (active)
same,IC50,[2],> 100 µM (inactive)
same,IC50,[3],> 100 µM (inactive)
O=C(CSCc1nc2ccccc2[nH]1)N1CCN(c2cccc(Cl)c2)CC1,EC50,[4],3.55 µM (active)
Cc1nc(CS(=O)(=O)c2ccc(Cl)cc2)cc(Sc2ccc(Cl)cc2)n1,EC50,[4],4.35 µM (active)
Nc1ncnc(Oc2cccc3cccnc23)c1[N+](=O)[O-],CC50,[5],39.5 µM (active)
same,IC50,cells,10.8 µM (active)
CC(C)(C)n1nnnc1C(c1ccc(F)cc1)N(Cc1ccc(F)cc1)Cc1ccco1 (stereo not given),EC50,[4],2.6 µM (active)
same,AC50,INS1,8.41 µM (active)
Cn1cnnc1SCC(=O)Nc1ncc([N+](=O)[O-])s1,AC50,Caspase-6,3.04 µM (active)
CCO/C=C1/C(=O)N(c2ccc(OC)cc2)C(=O)c2ccccc21,IC50,Caspase-3,7.36 µM (active)
same,IC50,[1],25.8 µM (active)
same,IC50,[2],8.55 µM (active)
same,IC50,[3],11.6 µM (active)
Cc1ccc(C2=NOC(=O)/C2=C\c2ccc(C)o2)cc1,IC50,Large T antigen,78.1 µM (active)
same,CC50,[6],100 µM (active)
same,IC50,[7],44.8 µM (active)
Oc1ccc(C(c2nnnn2C2CCCC2)N2CCc3ccccc3C2)cc1 (stereo not given),EC50,[4],5.95 µM (active)
O=C(NCCCN1CCOCC1)c1c(O)nc2c(Br)cc(Br)cc2c1O,CC50,[5],> 40 µM (active)
same,IC50,cells,1.04 µM (active)
COc1cc(/C=N/NC(=O)c2cc(-c3c(C)nn(-c4ccccc4)c3C)[nH]n2)ccc1O,EC50,[8],4.04 µM (active)
same,EC50,Streptokinase A,43.9 µM (inconclusive)
same,EC50,Streptococcus,4.37 µM (active)
same,AC50,[9],0.105 µM (active)
same,CC50,[6],90 µM (active)
same,IC50,[7],39.1 µM (active)
COc1ccc(S(=O)(=O)N(C)C[C@@H]2OCCCC[C@H](C)Oc3ccc(NS(=O)(=O)c4ccccc4)cc3C(=O)N([C@H](C)CO)C[C@H]2C)cc1,AC50,Paired box protein Pax-8,5.15 µM (active)
same,AC50,[10],28.2 µM (active)
same,AC50,[11],43.2 µM (active)
same,AC50,[12],> 70 µM (inactive)
COc1cc(-c2cc(-c3ccc(O)cc3)nc(N)c2C#N)ccc1O,CC50,[6],100 µM (active)
same,IC50,[7],34.7 µM (active)
COc1c2ccoc2nc2c(OC)c(OCC(O)C(C)(C)O)ccc12 (stereo not given) [EVOXINE],AC50,Cytochrome P450 3A4,15.8 µM (inconclusive)
COC(=O)c1c(C)cc(O)cc1O [METHYL ORSELLINATE],AC50,Cytochrome P450 3A4,12.6 µM (inconclusive)

# — ChEMBL document CHEMBL1201862, “PubChem BioAssay data set” (2004)
